Earlier results as cited in patent US12370233B2, “Depot systems comprising glatiramer acetate” (MAPI PHARMA LTD., priority 2016, dated 2025).

Conditions: as reported by Rotstein et al., JAMA Neurol., 2015

| Substance | NEDA at one year [%] |
| --- | --- |
| daclizumab [ZINBRYTA®] | 39 |
| natalizumab [TYSABRI®] | 47 |
